US20220016127A1, “COMPOSITIONS AND METHODS FOR INDUCING APPENDAGE AND LIMB REGENERATION” (priority 2020, published 2022)
“And” between values parts separate entries of the source, which are not always exact repeats. Equal entries are not always repeated.

How the values were obtained:
Aurelia ephyra [1] = assay: Arm regeneration induction in amputated Aurelia ephyrae; assay type: in vivo, Aurelia aurita; settings: for effect on arm regeneration / regeneration frequency (in words): amputated ephyrae, factor added to artificial seawater upon amputation; for Percent regeneration, Average: average over experiments; for Effect size, Length of arm regenerates: Response Ratio treated vs control (Table 7); for Average effect size: Risk Ratio of regeneration frequency, across experiments (Table 4); for Average effect size / Odds Ratio: treated vs control; for Effect size, % ephyrae regenerating / Effect size, % ephyrae regenerating >1 arm / Effect size, % ephyrae regenerating rhopalia: Risk Ratio treated vs control (Table 7); for Odds Ratio: odds of regeneration, across experiments (Table 6)
Method: Amputation. Strobilated ephyrae were fed daily with rotifers (Brachionus plicatilis) until amputation time. 2-3 days old ephyrae were anesthetized in 400 μM menthol and amputated using a razor blade mounted on an x-acto knife handle. After amputation, ephyrae were let to recover in bubbler cones (FIG. 7). Regeneration was assessed at various times until 1-2 weeks after amputation, before onset of maturation to medusa.
Inducing regeneration. Experimental setup. 0.5-1 L sand settling cones were repurposed as jellyfish aquaria (Nalgene Imhoff; FIG. 7). Each cone was equipped with an airline from a Tetra Whisper air pump 100 to create a gentle vertical current (˜1 bubble/sec, see FIG. 30). The conical geometry eliminates stagnant spots, where the ephyrae could get stuck. In this “bubbler cone” setup, the ephyrae were continually in water current either in the upward air bubble-generated current or the downward self-generated current. 500 mL artificial seawater and 30 ephyrae were placed in each cone to avoid crowding and fouling. Artificial seawater was changed every week. Nutrients. In some embodiments, the food amount given here only serves as an initial estimate; percentage of regeneration can easily vary with lab culture condition (e.g., polyp and rotifer size, age, health), as well as subject to variation across polyps and strobilation batches (see Table 2A-Table 2C for a sense of the variation). Amputated ephyrae were fed daily with rotifers. The number of rotifers administered daily was estimated using a 6-well plate fitted with STEMgrid™ (the same principle as using a hemocytometer). In some embodiments, low food is ˜100-200 rotifers/ephyra, whereas high food is ˜400 rotifers/ephyra. Insulin. Human recombinant insulin was administered to the amputated ephyrae at 500 nM immediately after amputation (by mixing in the artificial seawater). If the experiment proceeds longer than a week, fresh insulin was added at the one-week time point. Hypoxia. Nitrogen or argon flow, instead of ambient air flow, was introduced via the airline into the bubbler cone immediately after amputation, and maintained throughout the duration of the experiment. The nitrogen flow was adjusted to achieve 50% reduction in the dissolved oxygen level.
Inhibiting or activating mTOR. 1 nM Sapanisertib (Selleck Chemicals S2811), 1 μM A769662 (Santa Cruz sc-203790), or 100 μM L-leucine (Sigma L1002, the cell-permeable methyl ester hydrochloride form) was administered into the artificial seawater right after amputation, and refreshed weekly. Statistical analysis. Percent regeneration was first normalized to the control (for sapanisertib and A769662, the HF+DMSO control; for leucine data the LF control), and then the student's t-test (two tailed, equal variances) in Excel was used to test the null hypothesis that the fold change in % regeneration is zero. Drosophila melanogaster
Amputation. Strobilated ephyrae were fed daily with rotifers (Brachionus plicatilis, Reed Mariculture) until amputation time. 2-3 days old ephyrae were anesthetized in 400 μM menthol and amputated using a razor blade mounted on an x-acto knife handle. After amputation, ephyrae were let to recover in bubbler cones (FIG. 21). Regeneration was assessed at various times for 1-2 weeks after amputation, before onset of maturation to medusa. Experiment in the original habitat. The polyp population in the study arose from parental polyps collected off the coast of Long Beach, Calif. (33° 46′04.2″N 118° 07′44.2″W, GPS: 33.7678376,−118.1289559). Ephyrae were amputated in location and immediately after submersed in the ocean. For submerging the amputated ephyrae in the ocean, a two-layered aquarium was custom-built. Ephyrae were placed in plastic canisters with a 7 cm diameter hole cut in the lid and covered with a 250 μm plastic screen. The canisters were then placed in a thick plastic tank fitted with a 500 μm plastic screen on top. […]

Aurelia ephyra [2] = assay: Body size (growth) of amputated Aurelia ephyrae; assay type: in vivo, Aurelia aurita; settings: Response Ratio across experiments (Table 8)
Method: Two-to-three-day-old ephyrae were anesthetized in 400 μM menthol and amputated using a razor blade mounted on an x-acto knife handle. Amputated ephyrae were let to recover in 1 L sand settling cones (Nalgene Imhoff, FIG. 21). In each experiment, ˜90 animals were amputated for each condition (e.g., 90 animals for control and 90 animals for treated). Because of the varying baseline across strobilation batches, each experiment was repeated across 2-5 strobilation batches (biological replicates). These sample sizes were chosen to obtain a 95% confidence level on the treatment effect (statistical analysis described below). Hundreds of experimental animals were first amputated, mixed together in a beaker, and then randomly allocated to the control or treatment groups. Regeneration was assessed at various times for 1-2 weeks after amputation, before onset of maturation to medusa. All data were included in the analysis.
For measurements of arm length and body size, the datasets are in the form of continuous variables. For such data, the commonly used effect size is the Response Ratio (R, EQUATION 3),
R evaluates the proportionate change that results from a treatment, and is the meaningful effect size to use when the outcome of a treatment is measured on a physical scale, e.g., length or area (as opposed to arbitrary scale, e.g., happiness level). […]

Drosophila limb = assay: Tibia (hindlimb) regeneration in amputated adult Drosophila; assay type: in vivo, Drosophila melanogaster; settings: adult flies, fed in food
Method: Amputation. Adult flies 2-7 days after eclosion were anesthetized with CO2. Amputations were performed under a dissection microscope using a spring scissors (Fine Science Tools, 91500-09) and superfine dissecting forceps (VWR, 82027-402). Recovering Drosophila were fed with standard fly food (control) or standard fly food supplemented with 2 mM L-leucine (Sigma L8000), 2 mM L-Glutamine (Sigma G3126), and 0.1 mg/mL insulin (MP Biomedicals 0219390080) or other molecular factors. To introduce molecular factors into fly food, standard fly food was microwaved in short pulses, such that the topmost layer of the food was liquified. Molecular factors in aqueous medium were then pipetted into this liquified layer. Food was allowed to re-set at 4° C. for at least 20 minutes. New food was prepared fresh every 2 days throughout the course of the 2-week experiment. Regeneration was assessed at 3, 6, 9 and 14 days post amputation.
Drosophila were amputated on the hindlimb, across the fourth segment of the leg, the tibia (FIG. 16A-FIG. 16C). The amputation removed the distal half to third of the tibia and all tarsal segments. […] Regeneration was assessed between 7-21 dpa as the presence of a regrown tibia with a reformed distal joint (FIG. 16E). […]

Aurelia ephyra [3] = assay: Arm regeneration induction in amputated Aurelia ephyrae; assay type: in vivo, Aurelia aurita; settings: low food (LF) background; single experiments; arm regeneration 1-2 weeks after amputation; insulin 500 nM, L-leucine 100 μM / 100 mM, nitrogen flow ~50% reduction in oxygen
[4] = high food (HF) background, single experiments, insulin 500 nM, 1 nM sapanisertib, 1 μM A769662 (controls HF + DMSO), nitrogen or argon flow ~50% reduction in oxygen

With N#Cc1c(O)c2c(-c3ccc(-c4ccccc4O)cc3)csc2[nH]c1=O [A769662, reference compound] the “effect on arm regeneration / regeneration frequency (in words)” value (Aurelia ephyra [1]) was “inhibited arm regeneration”, the “Percent regeneration, Average” value (Aurelia ephyra [1]; high food (HF) background) was 8.3% and the Percent regeneration (Aurelia ephyra [1]; [4]) was 9.8% and 7.0%.

CC(C)C[C@H](N)C(=O)O [Leucine, L-leucine] was tested, and the “Effect size, Length of arm regenerates” value (Aurelia ephyra [1]) was 1.7, the Average effect size (Aurelia ephyra [1]) was 4.1 and the “Effect size, % ephyrae regenerating” value (Aurelia ephyra [1]) was 4.1. The “Effect size, % ephyrae regenerating >1 arm” value (Aurelia ephyra [1]) was 6.0, the “Effect size, % ephyrae regenerating rhopalia” value (Aurelia ephyra [1]) was 6.1 and the “effect on arm regeneration / regeneration frequency (in words)” value (Aurelia ephyra [1]) was “induced arm regeneration”. For the same compound, the “Percent regeneration, Average” value (Aurelia ephyra [1]; low food (LF) background) was 23.0%, the “Odds Ratio” value (Aurelia ephyra [1]) was 5.8 and the “Ave. body diameter treatment/control” value (Aurelia ephyra [2]) was 1.1. For the same compound, the “effect on tibia regrowth (in words)” value (Drosophila limb) was “can by itself effect tibia regrowth”.

For CC(C)n1nc(-c2ccc3oc(N)nc3c2)c2c(N)ncnc21 [Sap, Sapanisertib, reference compound], the “Percent regeneration, Average” value (Aurelia ephyra [1]; high food (HF) background) was 11.5%.

For [Ar] [argon], the “effect on arm regeneration / regeneration frequency (in words)” value (Aurelia ephyra [1]) was “dramatically induced regeneration” and the Percent regeneration (Aurelia ephyra [1]; [4]) was 72.5%.

In the case of N#N [nitrogen], the Percent regeneration (Aurelia ephyra [1]; LF* background, single experiment, nitrogen flow) is reported as 28.4%, the “Percent regeneration, Average” value (Aurelia ephyra [1]; high food (HF) background) is reported as 69.3% and the Percent regeneration (Aurelia ephyra [1]; [4]) is reported as 82.1% and 56.9%. The “Percent regeneration, Average” value (Aurelia ephyra [1]; low food (LF) background) was 30.6% and the Percent regeneration (Aurelia ephyra [3]) was 32.5%.

For “Insulin: human recombinant insulin (Sigma I0908), 500 nM in artificial seawater”, the “Effect size, Length of arm regenerates” value (Aurelia ephyra [1]) was 1.2, the Average effect size (Aurelia ephyra [1]) was 2.4 and the “Effect size, % ephyrae regenerating” value (Aurelia ephyra [1]) was 2.4. The “Effect size, % ephyrae regenerating >1 arm” value (Aurelia ephyra [1]) was 1.9, the “Effect size, % ephyrae regenerating rhopalia” value (Aurelia ephyra [1]) was 1.3 and the Percent regeneration (Aurelia ephyra [1]; [4]) was 36.4%. The “Odds Ratio” value (Aurelia ephyra [1]) was 5.0, the “Ave. body diameter treatment/control” value (Aurelia ephyra [2]) was 1.4 and the Percent regeneration (Aurelia ephyra [3]) was 25%.

“Tgfb: protein tested in the screen (hTGF-β1, Peprotech 100-21)” was tested, and the “effect on arm regeneration / regeneration frequency (in words)” value (Aurelia ephyra [1]) was “no effect”.
